Reference: paper PMC9891171, “Inhibition studies with simple and complex (in)organic anions of the γ-carbonic anhydrase from Mammaliicoccus (Staphylococcus) sciuri, MscCAγ” (Journal of Enzyme Inhibition and Medicinal Chemistry, 2023)

Molecular target: T1, MscCAγ (Mammaliicoccus sciuri, UniProt A0AB37HNM1)
T1 construct: gene OWO77_11715
T1 sequence (A0AB37HNM1 1-169): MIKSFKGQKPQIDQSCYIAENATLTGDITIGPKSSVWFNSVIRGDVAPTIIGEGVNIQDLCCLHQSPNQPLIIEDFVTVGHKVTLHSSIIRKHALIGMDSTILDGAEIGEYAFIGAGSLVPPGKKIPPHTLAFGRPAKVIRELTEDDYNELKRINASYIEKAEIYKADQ
Experiment: stopped-flow CO2 hydration assay
Type: biochemical
Details: read-out: KI (mM)^a / McsCAγ

SMILES | Ki [mM]
O=S(=O)(O)NS(=O)(=O)O [iminodisulfonate] | 13.7
NS(=O)(=O)O [sulphamic acid] | 25.2
OB(O)c1ccccc1 [phenylboronic acid] | 0.9
NS(N)(=O)=O [sulfamide] | 49.2
O=P(O)(O)OP(=O)(O)O [pyrophosphate] | 0.8
[O]=[Re](=[O])(=[O])[OH] [perrhenate] | 4.4
S=C(S)S [trithiocarbonate] | 0.07
N#C[SeH] [selenocyanide] | 32.5
CCN(CC)C(=S)S [N,N-diethyldithiocarbamate] | 0.5
